In ChEMBL document CHEMBL5365492 (J Med Chem, 2023):
Square brackets hold non-standard residues; d marks the D form. Peptide text beside a SMILES is read from it. NMeL = CN[C@@H](CC(C)C)C(=O)O; NMeV = CN[C@H](C(=O)O)C(C)C; Nva = CCC[C@H](N)C(=O)O; Sar = CNCC(=O)O

How the values were obtained:
[1] = Permeability of compound at 10 uM incubated for 18 hrs by PAMPA assay; type: ADME; settings: read-out: permeability
[2] = Permeability in human Caco-2 cells at 10 uM incubated for 2 hrs by LC-MS analysis; type: ADME, cell-based; settings: read-out: permeability
[3] = 1,9-decadiene-water partition coefficient, logD of compound at pH 7.4 at 10 uM incubated for 30 mins by LC-MS analysis; type: physicochemical

Compound	Papp at 18 h, 10 µM [1]	Papp at 2 h, 10 µM [2]	logD hydrocarbon water at 0.5 h, 10 µM [3]
CCC[C@@H]1NC(=O)[C@H]([C@H](O)C(C)C)N(C)C(=O)[C@H](C(C)C)N(C)C(=O)[C@H](CC(C)C)N(C)C(=O)[C@H](CC(C)C)N(C)C(=O)[C@@H](C)NC(=O)[C@H](C)NC(=O)[C@H](CC(C)C)N(C)C(=O)[C@H](C(C)C)NC(=O)[C@H](CC(C)C)N(C)C(=O)CN(C)C1=O	9.2 ×10⁻⁶ cm/s	18.6 ×10⁻⁶ cm/s	3.35
CCC[C@@H]1NC(=O)[C@H]([C@@H](C)O)N(C)C(=O)[C@H](C(C)C)NC(=O)[C@H](CC(C)C)N(C)C(=O)[C@H](CC(C)C)N(C)C(=O)[C@@H](C)NC(=O)[C@H](C)NC(=O)[C@H](CC(C)C)N(C)C(=O)[C@H](C(C)C)NC(=O)[C@H](CC(C)C)N(C)C(=O)CN(C)C1=O	0.8 ×10⁻⁶ cm/s	8.7 ×10⁻⁶ cm/s	3.12
CCC[C@@H]1NC(=O)[C@H]([C@@H](C)O)N(C)C(=O)[C@H](C(C)C)N(C)C(=O)CN(CCN(C(C)C)C(C)C)C(=O)[C@H](CC(C)C)N(C)C(=O)[C@@H](C)NC(=O)[C@H](C)NC(=O)[C@H](CC(C)C)N(C)C(=O)[C@H](C(C)C)NC(=O)[C@H](CC(C)C)N(C)C(=O)CN(C)C1=O.O=C(O)C(F)(F)F		0.07 ×10⁻⁶ cm/s	0.13
CCC[C@@H]1NC(=O)[C@H]([C@@H](C)O)N(C)C(=O)[C@H]([C@@H](C)CC)NC(=O)[C@H](CC(C)C)N(C)C(=O)[C@H](CC(C)C)N(C)C(=O)[C@@H](C)NC(=O)[C@H](C)NC(=O)[C@H](CC(C)C)N(C)C(=O)[C@H](C(C)C)NC(=O)[C@H](CC(C)C)N(C)C(=O)CN(C)C1=O	7.5 ×10⁻⁶ cm/s	2.2 ×10⁻⁶ cm/s	2.58
CCC[C@@H]1NC(=O)[C@H](CC(C)C)N(C)C(=O)[C@H](C(C)C)N(C)C(=O)[C@H](CC(C)C)N(C)C(=O)[C@H](CC(C)C)N(C)C(=O)[C@@H](C)NC(=O)[C@H](C)NC(=O)[C@H](CC(C)C)N(C)C(=O)[C@H](C(C)C)NC(=O)[C@H](CC(C)C)N(C)C(=O)CN(C)C1=O (cyclo(A[dA][NMeL][NMeL][NMeV][NMeL][Nva][Sar][NMeL]V[NMeL]))	0.6 ×10⁻⁶ cm/s	4.1 ×10⁻⁶ cm/s	4.93
CCCC[C@@H]1NC(=O)[C@H](CC(C)C)N(C)C(=O)[C@H](CC(C)C)N(C)C(=O)[C@@H](C)NC(=O)[C@H](C)NC(=O)[C@H](CC(C)C)N(C)C(=O)[C@H](C(C)C)NC(=O)[C@H](CC(C)C)N(C)C(=O)CN(C)C(=O)[C@H](CCC)NC(=O)[C@H]([C@@H](C)O)N(C)C1=O	5.2 ×10⁻⁶ cm/s	3 ×10⁻⁶ cm/s	2.59
CCC[C@@H]1NC(=O)[C@H]([C@@H](C)O)N(C)C(=O)[C@H](CC(C)C)NC(=O)[C@H](CC(C)C)N(C)C(=O)[C@H](CC(C)C)N(C)C(=O)[C@@H](C)NC(=O)[C@H](C)NC(=O)[C@H](CC(C)C)N(C)C(=O)[C@H](C(C)C)NC(=O)[C@H](CC(C)C)N(C)C(=O)CN(C)C1=O	7.7 ×10⁻⁶ cm/s	2.6 ×10⁻⁶ cm/s	2.52
CCC[C@@H]1NC(=O)[C@H]([C@H](O)C(C)C)N(C)C(=O)[C@H](C(C)C)NC(=O)[C@H](CC(C)C)N(C)C(=O)[C@H](CC(C)C)N(C)C(=O)[C@@H](C)NC(=O)[C@H](C)NC(=O)[C@H](CC(C)C)N(C)C(=O)[C@H](C(C)C)NC(=O)[C@H](CC(C)C)N(C)C(=O)CN(C)C1=O		6.8 ×10⁻⁶ cm/s	4.6
CCC[C@@H]1NC(=O)[C@H]([C@@H](C)O)N(C)C(=O)[C@H](C)NC(=O)[C@H](CC(C)C)N(C)C(=O)[C@H](CC(C)C)N(C)C(=O)[C@@H](C)NC(=O)[C@H](C)NC(=O)[C@H](CC(C)C)N(C)C(=O)[C@H](C(C)C)NC(=O)[C@H](CC(C)C)N(C)C(=O)CN(C)C1=O	0.3 ×10⁻⁶ cm/s	0.3 ×10⁻⁶ cm/s	1.45
NC(=O)N1c2ccccc2C=Cc2ccccc21 [CARBAMAZEPINE]	9.5 ×10⁻⁶ cm/s		0.13
CCC[C@@H]1NC(=O)[C@H](CC)N(C)C(=O)[C@H](C(C)C)N(C)C(=O)[C@H](CC(C)C)N(C)C(=O)[C@H](CC(C)C)N(C)C(=O)[C@@H](C)NC(=O)[C@H](C)NC(=O)[C@H](CC(C)C)N(C)C(=O)[C@H](C(C)C)NC(=O)[C@H](CC(C)C)N(C)C(=O)CN(C)C1=O	2 ×10⁻⁶ cm/s	6.4 ×10⁻⁶ cm/s	3.58
C/C=C/C[C@@H](C)[C@@H](OC(C)=O)[C@H]1C(=O)N[C@@H](CC)C(=O)N(C)CC(=O)N(C)[C@@H](CC(C)C)C(=O)N[C@@H](C(C)C)C(=O)N(C)[C@@H](CC(C)C)C(=O)N[C@@H](C)C(=O)N[C@H](C)C(=O)N(C)[C@@H](CC(C)C)C(=O)N(C)[C@@H](CC(C)C)C(=O)N(C)[C@@H](C(C)C)C(=O)N1C			5.17
CCC[C@@H]1NC(=O)[C@H]([C@@H](C)O)N(C)C(=O)[C@H](C(C)C)N(C)C(=O)CN(CC[N+](CC)(CC)CC)C(=O)[C@H](CC(C)C)N(C)C(=O)[C@@H](C)NC(=O)[C@H](C)NC(=O)[C@H](CC(C)C)N(C)C(=O)[C@H](C(C)C)NC(=O)[C@H](CC(C)C)N(C)C(=O)CN(C)C1=O.O=C([O-])C(F)(F)F		0.35 ×10⁻⁶ cm/s	-2.44
CCC[C@@H]1NC(=O)[C@H]([C@@H](C)O)N(C)C(=O)[C@H](C(C)C)N(C)C(=O)[C@H](CC(C)C)N(C)C(=O)[C@H](CC(C)C)N(C)C(=O)[C@@H](C)NC(=O)[C@H](C)NC(=O)[C@H](CC(C)C)N(C)C(=O)[C@H](C(C)C)NC(=O)[C@H](CC(C)C)N(C)C(=O)CN(C)C1=O	6.6 ×10⁻⁶ cm/s	3 ×10⁻⁶ cm/s	2.12
CC(C)NCC(O)COc1cccc2ccccc12 (configuration not stated) [PROPRANOLOL]		32 ×10⁻⁶ cm/s	
